Experimental data taken from US10744179B2, “Method for treatment of inflammatory skin disorders with inhibitors of IL-36 proteolytic processing” (THE PROVOST, FELLOWS, FOUNDATION SCHOLARS, & THE OTHER …, priority 2014, dated 2020).
No end group written: not given here. *: point of attachment. CH2Cl = ClC*

What was measured:
[1] = system: IL-36α activation by activated neutrophil degranulates; test: IL-36α activation by PMA-activated neutrophil degranulates, HeLa IL-36R bioassay (cytokine ELISA); assay type: cell-based, human; conditions: FIG. 5; IL-36α pre-incubated 2 h at 37° with degranulates ± PMSF (1 mM) or Cathepsin G inhibitor 1 (10 μM); HeLa IL36R, cytokine ELISA after 24 h
[2] = system: IL-36α activation by psoriatic skin eluates; test: IL-36α activation by psoriatic skin eluates, HeLa IL-36R bioassay (IL-8 ELISA); assay type: cell-based, human; conditions: FIG. 40c, IL-36α 500 pM pre-incubated 2 h at 37° with eluates ± cathepsin G inhibitor 1 (10 μM)
Description: (§1) Fixomull (2 cm×2 cm) adhesive tape strips were applied to a healthy or psoriatic skin, under firm pressure for 10 seconds. […] Sample eluates were stored at −80° C. Enzymatic assays and bioassays were setup using control and psoriatic eluates as described above.

[3] = system: IL-36β activation by psoriatic skin eluates; test: IL-36β activation by psoriatic skin eluates, HeLa IL-36R bioassay (IL-8 ELISA); assay type: cell-based, human; conditions: FIG. 40c, IL-36β 500 pM pre-incubated 2 h at 37° with eluates ± cathepsin G inhibitor 1 (10 μM)
Description: as §1

[4] = system: IL-36β activation by activated neutrophil degranulates; test: IL-36β activation by PMA-activated neutrophil degranulates, HeLa IL-36R bioassay (cytokine ELISA); conditions: HeLa IL36R; for inhibition of the activation of IL-36β by activated neutrophil degranulates: FIG. 5, IL-36β pre-incubated 2 h at 37° with degranulates ± PMSF (1 mM) or Cathepsin G inhibitor 1 (10 μM), cytokine ELISA after 24 h; for inhibition of IL-36β activation by neutrophil degranulates (peptide panel): FIG. 6, 29, 30, degranulates pre-incubated 30 min on ice with peptide titration (20-0.625 μM), then IL36β 2 h at 37°, IL-6 ELISA after 24 h
Description: FIG. 29 are graphs showing Neutrophils degranulates pre-incubated for 30 min on ice in the presence or absence of a titration of peptide (20, 10, 5, 2.5, 1.25, 0.625 μM) followed by addition of IL36β for 2 h at 37°. HeLa^IL36R were stimulated for 24 h. IL-6 cytokine concentrations in culture supernatants were determined by ELISA. Note: Elast I-IV serves as negative controls for IL-36β assay.
Primary neutrophils were purified from donor human blood using the plasma-Percoll gradient method. Purity of cell preparations (>90%) was determined by Hematoxylin and Eosin staining of cytospins. To prepare degranulates, neutrophils (10^7 per treatment) were stimulated in the presence or absence of 50 nM PMA in HBSS/0.25% BSA for 1-3 h at 37° C. in a humidified atmosphere with 5% CO2. Supernatants were harvested and clarified by centrifugation. Degranulate aliquots were stored at −80°.
Reactions (40-100 μl final volume) were carried out in protease reaction buffer (50 mM Hepes, pH 7.4/75 mM NaCl/0.1% CHAPS) for 2 h at 37°.
Cytokines and chemokines were measured from cell culture supernatants using specific ELISA kits obtained from R&D systems (human IL-6, IL-8, CXCL1, MCP-1, IL-17C). Each assay was repeated a minimum of three times and all cytokine assays were carried out using triplicate samples from each culture.

Row | Compound | inhibition of the activation of IL-36α by activated neutrophil degranulates [1] | attenuation of IL-36α activation by psoriatic skin eluates [2] | attenuation of IL-36β activation by psoriatic skin eluates [3] | inhibition of the activation of IL-36β by activated neutrophil degranulates [4] | inhibition of IL-36β activation by neutrophil degranulates (peptide panel) [4]
1 | CN(C(=O)c1cc2ccccc2cc1C(=O)C(c1cccc2ccccc12)P(=O)(O)O)C1CCN(C(=O)c2ccccc2)CC1 (stereo not drawn) [Cathepsin G Inhibitor I] | robustly inhibited | attenuated | attenuated | robustly inhibited | –
2 | O=S(=O)(F)Cc1ccccc1 [PMSF, phenylmethanesulfonylfluoride] | robustly inhibited | – | – | robustly inhibited | –
3 | FLF-CMK: Cathepsin G-inhibitory peptide Phe-Leu-Phe with chloromethyl ketone (CMK) at the C-terminus (Phe-Leu-Phe-CH2Cl) | – | – | – | – | most potent inhibitors
4 | Glu-Pro-Phe-CMK (Glu-Pro-Phe-CH2Cl) [EPF-CMK] | – | – | – | – | most potent inhibitors
5 | Ala-Phe-Leu-Phe-CMK (AFLF; not fully specified; C-terminal chloromethyl ketone; N-terminal Z; printed: Ala-Phe-Leu-Phe-) [AFLF-CMK] | – | – | – | – | most potent inhibitors
